The source made the active and inactive calls. No cut-off for these calls is given here.
Tests used:
[1] = Cmax in Sprague-Dawley rat at 1 mg/kg, iv by LC-MS/MS analysis; type: ADME, organism-based; design: dose 1 mg/kg, route intravenous; conditions: in vivo
B16-F10 [2] = experiment: Cytotoxicity against mouse B16/F10 cells assessed as reduction in cell viability measured after 48 hrs by MTT assay; type: functional, cell-based; conditions: B16-F10, 48 h
Mus musculus [3] = experiment: (§1) Effect on spleen helper T cell population in mouse B16/F10 cells implanted […] mouse assessed as CD4-positive cell population at 100 mg/kg, ig administered once daily via gavage for 15 days measured 24 hrs post-last dose by immunostaining based flow cytometry (reference value: 1.47 %); type: ADME, organism-based; conditions: in vivo, po
[4] = Half life in Sprague-Dawley rat at 1 mg/kg, iv by LC-MS/MS analysis; type: ADME, organism-based; conditions: in vivo
[5] = Half life in Sprague-Dawley rat at 10 mg/kg, po by LC-MS/MS analysis; type: ADME, organism-based; conditions: in vivo
Mus musculus [6] = experiment: (§2) Immunostimulatory activity in mouse B16/F10 cells implanted BALB/c mouse assessed as increase in activation of tumor-microenvironment mediated helper T cells in tumor by measuring CD3-positive/CD4-positive cell population at 25 mg/kg, ig administered once daily via gavage for 15 days measured 24 hrs post-last dose by immunostaining based flow cytometry (reference value: 6.15%); type: functional
Mus musculus [7] = experiment: as §2, with “CD3-positive” for “CD3-positive/CD4-positive”, “100” for “25”, “18.9%)” for “6.15%)”; type: functional
Mus musculus [8] = experiment: as §2, with “activated cytotoxic” for “helper”, “melanoma” for “CD3-positive/CD4-positive”, “100” for “25”, “72.8%)” for “6.15%)”; type: functional
[9] = target: T1, Programmed cell death protein 1/Programmed cell death 1 ligand 1 (Homo sapiens, UniProt Q9NZQ7); experiment: (§3) Inhibition of human PD1/PDL1 protein-protein interaction in human PBMC-derived CD3-positive T cells co-cultured with human Hep3B cells expressing human PDL1/OS-8 assessed as increase in IFNgamma secretion measured after 72 hrs by ELISA
[10] = target: Programmed cell death protein 1/Programmed cell death 1 ligand 1 (Homo sapiens) (UniProt Q15116+Q9NZQ7); experiment: as §3
[11] = Clearance in Sprague-Dawley rat at 10 mg/kg, po by LC-MS/MS analysis; type: ADME, organism-based; conditions: in vivo
Mus musculus [12] = experiment: as §2, with “activated cytotoxic” for “helper”, “melanoma” for “CD3-positive/CD4-positive”, “72.8%)” for “6.15%)”; type: functional
Mus musculus [13] = experiment: Immunostimulatory activity in mouse B16/F10 cells implanted […] mouse assessed as activation of tumor microenvironment by measuring increase in tumor infiltrating lymphocytes at 25 to 100 mg/kg, ig administered once daily via gavage for 15 days measured 24 hrs post last dose by H and E staining-based microscopic method; type: functional, organism-based
Mus musculus [14] = experiment: (§4) Effect on activated cytotoxic T cell population in mouse B16/F10 cells implanted […] mouse assessed as CD8-positive cell population in spleen at 50 mg/kg, ig administered once daily via gavage for 15 days measured 24 hrs post-last dose by immunostaining based flow cytometry (reference value: 0.383 %); type: organism-based; conditions: in vivo, po
Mus musculus [15] = experiment: as §2, with “activated cytotoxic” for “helper”, “CD3-positive” for “CD3-positive/CD4-positive”, “20.8%)” for “6.15%)”; type: functional
[16] = target: T1, Programmed cell death protein 1/Programmed cell death 1 ligand 1; experiment: Inhibition of human PD1/PDL1 protein-protein interaction by HTRF assay; type: protein-complex assay
Mus musculus [17] = experiment: Effect on spleen helper T cell population in mouse B16/F10 cells implanted […] mouse assessed as CD3-positive/CD4-positive cell population at 50 mg/kg, ig administered once daily via gavage for 15 days measured 24 hrs post-last dose by immunostaining based flow cytometry (reference value: 27.7%); type: ADME, organism-based; conditions: in vivo, po
Mus musculus [18] = experiment: as §1, with “CD3-positive/CD4-positive” for “CD4-positive”, “27.7” for “1.47”; type: ADME, organism-based; conditions: in vivo, po
Mus musculus [19] = experiment: as §2, with “CD3-positive” for “CD3-positive/CD4-positive”, “18.9%)” for “6.15%)”; type: functional
Mus musculus [20] = experiment: Effect on spleen helper T cell population in mouse B16/F10 cells implanted […] mouse assessed as CD3-positive/CD4-positive cell population at 25 mg/kg, ig administered once daily via gavage for 15 days measured 24 hrs post-last dose by immunostaining based flow cytometry (reference value: 27.7%); type: ADME, organism-based; conditions: in vivo, po
MCF7 = experiment: Cytotoxicity against human MCF7 cells assessed as reduction in cell viability measured after 48 hrs by MTT assay; type: functional, cell-based; conditions: MCF7, 48 h
Mus musculus [21] = experiment: as §4, with “CD3-positive” for “CD8-positive”, “27.5” for “0.383”; type: organism-based; conditions: in vivo, po
B16-F10 [22] = experiment: Antitumor activity against mouse B16/F10 cells implanted in BALB/c mouse assessed as tumor weight at 100 mg/kg, ig administered once daily via gavage for 15 days measured 24 hrs post-last dose (reference value: 0.84 +/- 0.32 g); type: functional
[23] = Oral bioavailability in Sprague-Dawley rat at 10 mg/kg by LC-MS/MS analysis; type: ADME, organism-based; conditions: in vivo
Mus musculus [24] = experiment: as §4, with “CD3-positive/CD8-positive” for “CD8-positive”, “100” for “50”, “14.2” for “0.383”; type: organism-based; conditions: in vivo, po
Mus musculus [25] = experiment: as §2, with “melanoma” for “CD3-positive/CD4-positive”, “50” for “25”, “70%)” for “6.15%)”; type: functional
Mus musculus [26] = experiment: as §2, with “activated cytotoxic” for “helper”, “CD3-positive” for “CD3-positive/CD4-positive”, “100” for “25”, “20.8%)” for “6.15%)”; type: functional
Mus musculus [27] = experiment: as §2, with “activated cytotoxic” for “helper”, “CD8-positive” for “CD3-positive/CD4-positive”, “50” for “25”, “2.2%)” for “6.15%)”; type: functional
[28] = Toxicity in Sprague-Dawley rat at 1 mg/kg, iv; type: organism-based; conditions: in vivo

T1 sequence (Q15116 whole entry): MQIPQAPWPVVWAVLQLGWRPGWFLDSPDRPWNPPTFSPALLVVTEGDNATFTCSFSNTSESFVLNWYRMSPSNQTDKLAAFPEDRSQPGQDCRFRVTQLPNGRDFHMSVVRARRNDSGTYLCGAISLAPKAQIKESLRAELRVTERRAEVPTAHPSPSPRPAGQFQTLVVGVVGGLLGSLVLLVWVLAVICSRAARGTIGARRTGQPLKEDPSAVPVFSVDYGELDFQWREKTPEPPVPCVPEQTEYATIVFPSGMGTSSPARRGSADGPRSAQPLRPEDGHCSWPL
T1 sequence (Q9NZQ7 whole entry): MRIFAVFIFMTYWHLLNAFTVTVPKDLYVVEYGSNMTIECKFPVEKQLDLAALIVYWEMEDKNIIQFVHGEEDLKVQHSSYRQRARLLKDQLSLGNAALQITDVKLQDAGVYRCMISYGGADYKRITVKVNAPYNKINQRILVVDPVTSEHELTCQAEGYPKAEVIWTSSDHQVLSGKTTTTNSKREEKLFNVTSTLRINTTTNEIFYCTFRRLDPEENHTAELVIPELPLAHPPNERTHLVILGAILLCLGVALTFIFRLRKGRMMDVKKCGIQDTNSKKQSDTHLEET

Cmax [1]: 1750 ng/mL
Activity (Mus musculus [3]): 1.78%
half-life [4]: 1.5 h
half-life [5]: 10.9 h
CL/F [11]: 385 mL/min/kg
Activity (Mus musculus [17]): 28.2%
Activity (Mus musculus [18]): 25%
Activity (Mus musculus [20]): 24.4%
bioavailability [23]: 5%
SMILES: Cc1c(COc2cc(OCc3cccc(C#N)c3)c(CNC(C)(C)C(=O)O)cc2Cl)cccc1-c1ccccc1
IC50 (B16-F10 [2]): > 10 µM
Activity (Mus musculus [6]): 15.4%
Activity (Mus musculus [7]): 28%
Activity (Mus musculus [8]): 44.8%
EC50 [9]: 3 µM
inhibition [10]: Dose-dependent effect
Activity (Mus musculus [12]): 59.4%
Activity (Mus musculus [13]): Active
Activity (Mus musculus [14]): 0.374%
Activity (Mus musculus [15]): 18%
IC50 [16]: 0.0125 µM
Activity (Mus musculus [19]): 15%
IC50 (MCF7): > 10 µM
Activity (Mus musculus [21]): 28.8%
Activity (B16-F10 [22]): 0.16 g
Activity (Mus musculus [24]): 11.6%
Activity (Mus musculus [25]): 68.4%
Activity (Mus musculus [26]): 18.7%
Activity (Mus musculus [27]): 5.76%
Activity [28]: Non-Toxic

From ChEMBL document CHEMBL4619786, “Discovery of Novel Resorcinol Dibenzyl Ethers Targeting the Programmed Cell Death-1/Programmed Cell Death-Ligand 1 Interaction as Potential Anticancer Agents” (J Med Chem, 2020)
